Measurements: US20100190849A1, “Novel Clerodanes and Methods for Repelling Arthropods” (priority 2006, published 2010)
Marks after values point to notes of the source that are not given here.

Test system: Aedes aegypti
Test: K & D module mosquito anti-biting (repellent) bioassay
Assay type: in vivo
Procedure: Insects: Ae. aegypti(L.) (red eye Liverpool strain) and An. stephensi Liston used in the study were from colonies maintained at the Walter Reed Army Institute of Research, Silver Spring, Md. […] Adults were maintained in a photoperiod of 12:12 (L:D) h at 27° C. and 80% RH with cotton pads moistened with 10% aqueous sucrose solution. Mated females were 5-15 d old when they were used in bioassays. Ae. aegypti females had access only to water 24 h and neither food nor water for another 24 h before testing. An. stephensi females were provided with water alone 24 h before testing.
Routinely, a six-celled K & D module containing five mosquitoes/cell was positioned over cloth treatments covering the six blood-membrane wells, and trap doors of the K&D modules were opened to expose the treatments to the sets of mosquitoes. After a 3 minute exposure, the number of mosquitoes biting through cloth treatments in each cell was recorded and mosquitoes were prodded back into the cells. […] Experiments were replicated 12, 18, 32, or 56 times. Thus, 60, 90, 160. or 280 mosquitoes were tested against each treatment depending on the experiment, and the proportion of mosquitoes not biting for each treatment was calculated. For each experiment, conducted in different time periods, logistic regression was used to make two sets of one degree-of-freedom contrasts (t-tests): treatments vs. control and treatments vs. SS220 for anti-biting activity within each experiment. The level of significance was set at P=0.05. In all, we conducted 8 biological experiments, and all experiments used Ae. aegypti as the test mosquito with exception of Experiment 7 which used An. stephensi.
Each experiment was replicated 18 times.
Experiments 3, 4, and 5: In each of these experiments, chromatographic fractions of essential oil at their respective percentage compositions of 100 μg essential oil/cm^2 cloth, 100 μg unfractionated essential oil/cm^2 cloth, 25 nmol SS-220/cm^2 cloth and control were compared for mosquito anti-biting activity. Each experiment was replicated 18 times.
Experiments 6 and 7: These experiments compared the anti-biting activities of SS-220, and plant-isolated callicarpenal, humulene epoxide II, intermedeol and spathulenol at 25 nmol compound/cm^2 cloth versus control against Ae. aegypti and An. stephensi, respectively. Experiment 6 was replicated 32 times and 7 had 56 replicates
The percentage composition of the mixture was a normalized percentage of active components in C. japonica essential oil based upon GC-MS analysis total ion Area % analysis based on largest peaks. Other treatments in the experiment were SS220, callicarpenal, intermedeol, and spathulenol each at 25 nmol/cm^2 cloth versus control.

[1] = Exp. 6, 25 nmol compound/cm^2 cloth, 32 replicates
[2] = Exp. 8, 25 nmol/cm^2 cloth, 12 replicates
[3] = Experiment 6, 25 nmol compound/cm^2 cloth
[4] = Experiment 8, 25 nmol/cm^2 cloth

Structure (SMILES)	Proportion Not Biting [1]	Proportion Not Biting [2]	repellent activity (in words) [3]	repellent activity (in words) [4]	Proportion Not Biting (Table 7, Example 2, synthetic compounds, dose not given)	Proportion Not Biting (Table 8, Example 3, synthetic compounds, dose not given)
CC1=CCC[C@@H]2[C@@](C)(CC=O)[C@H](C)CC[C@@]12C [callicarpenal, 13,14,15,16-tetranorclerod-3-en-12-al]	0.70^b	0.73^a	significant activity	high repellent activity that was comparable to SS220	0.70^b	0.73^b
C=C(C)C1CCC2(C)CCCC(C)(O)C2C1 [intermedeol, (4S,5S,7R,10S)-eudesm-11-en-4-ol]	0.70^b	0.62^c	significant activity	high repellent activity that was comparable to SS220		
